Source: US11773078B2, “Furin inhibitors” (Glaxosmithkline Intellectual Property Development Limited, priority 2018, dated 2023)
Where a name gives a salt, the structure may show the parent alone.

Assays:
[1] = biological target: T1, furin (endogenous protease) in U20S cells (Homo sapiens, UniProt P09958); experiment: Furin cell-based assay (image-based, Golgi-targeted GFP with BMP10 furin/PCSK cleavage site); details: 24-hour incubation, read-out: furin golgi cell pXC50 (converted);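 further: Read-out is mean GFP fluorescence of Golgi puncta per cell by high-content imaging, retained when furin inhibited, over an eleven-point 0.00017–10 µM series, four-parameter fit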
T1 construct: the endogenous protease cleaves GFP; endogenous in cells; host or cells: U2OS cells transduced with a BacMam reporter

[2] = biological target: T2, Furin (108-574-Tev-Flag-His) enzyme (Homo sapiens, UniProt P09958); experiment: Furin enzyme assay; type: biochemical
T2 construct: Furin (108-574-Tev-Flag-His) enzyme was expressed and purified from CHO cells; TEV cleavage site (C); FLAG (C); His (C); made in house; host or cells: CHO cells
Outline: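 CHO-expressed, purified furin construct at 40 pM in 100 mM HEPES pH7.5, 1 mM CaCl2, 0.005% Triton X-100. Eleven-point 1:3 series, 0.00017–10 μM final, incubated 2 h at room temperature and read on Envision. pXC50 from four-parameter fit.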

T1 sequence (P09958 108-794): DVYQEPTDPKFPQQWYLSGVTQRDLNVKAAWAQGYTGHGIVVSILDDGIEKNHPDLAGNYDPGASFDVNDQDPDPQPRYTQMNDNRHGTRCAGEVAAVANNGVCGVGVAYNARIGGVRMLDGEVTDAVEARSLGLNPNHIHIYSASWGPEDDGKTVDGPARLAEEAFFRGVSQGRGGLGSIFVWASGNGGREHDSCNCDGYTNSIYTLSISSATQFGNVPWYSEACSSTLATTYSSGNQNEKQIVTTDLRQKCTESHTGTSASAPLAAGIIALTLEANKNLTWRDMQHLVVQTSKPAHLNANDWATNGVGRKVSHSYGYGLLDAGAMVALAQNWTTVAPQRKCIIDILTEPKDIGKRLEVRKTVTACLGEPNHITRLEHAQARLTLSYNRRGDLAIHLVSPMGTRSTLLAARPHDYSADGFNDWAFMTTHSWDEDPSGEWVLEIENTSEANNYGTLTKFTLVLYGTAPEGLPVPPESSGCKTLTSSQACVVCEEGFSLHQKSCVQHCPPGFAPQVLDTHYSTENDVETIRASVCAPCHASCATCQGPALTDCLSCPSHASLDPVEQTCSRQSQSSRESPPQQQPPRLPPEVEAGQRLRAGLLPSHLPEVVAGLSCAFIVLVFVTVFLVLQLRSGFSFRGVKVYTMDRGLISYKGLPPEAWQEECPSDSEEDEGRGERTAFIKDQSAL
T2 sequence (P09958 108-574): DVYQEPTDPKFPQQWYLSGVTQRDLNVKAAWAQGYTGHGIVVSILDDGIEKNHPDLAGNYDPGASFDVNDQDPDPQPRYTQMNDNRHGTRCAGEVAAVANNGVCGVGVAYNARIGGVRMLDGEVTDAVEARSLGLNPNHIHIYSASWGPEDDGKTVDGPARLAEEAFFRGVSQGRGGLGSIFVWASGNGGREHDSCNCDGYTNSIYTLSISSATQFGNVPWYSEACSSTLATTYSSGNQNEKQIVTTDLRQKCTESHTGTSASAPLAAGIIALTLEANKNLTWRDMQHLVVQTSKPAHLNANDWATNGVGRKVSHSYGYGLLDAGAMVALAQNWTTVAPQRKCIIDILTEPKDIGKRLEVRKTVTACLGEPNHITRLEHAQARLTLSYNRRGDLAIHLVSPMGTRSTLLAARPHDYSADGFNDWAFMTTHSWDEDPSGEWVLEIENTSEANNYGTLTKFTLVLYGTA

EC50 [1] [nM] | furin enzyme pIC50 [2] | IC50 ([2]; read-out: furin enzyme pIC50 (converted)) [nM] | SMILES
20 | 10.1 | – | COC(=O)NCC1CCN(Cc2cc(Oc3cnc(N4CCN(CCC(=O)O)[C@@H](C)C4)nc3)nc(-c3cc(Cl)cc(Cl)c3)c2)CC1 [Example 294, (S)-3-(4-(5-((6-(3,5-dichlorophenyl)-4-((4-(((methoxycarbonyl)amino)methyl)piperidin-1-yl)methyl)pyridin-2-yl)oxy)pyrimidin-2-yl)-2-methylpiperazin-1-yl)propanoic acid]
31.6 | 8.5 | – | C[C@@H](O)CN1CCN(c2ccc(Oc3cc(CN4CCC(CC(=O)O)CC4)cc(-c4cc(Cl)cc(Cl)c4)n3)cn2)CC1 [Example 299, (R)-2-(1-((2-(3,5-dichlorophenyl)-6-((6-(4-(2-hydroxypropyl)piperazin-1-yl)pyridin-3-yl)oxy)pyridin-4-yl)methyl)piperidin-4-yl)acetic acid]
39.8 | 9.6 | – | CC(CC1CCN(Cc2cc(Oc3cnc(N4CCN(C[C@@H](C)O)CC4)nc3)nc(-c3cc(Cl)cc(Cl)c3)c2)CC1)C(=O)O (stereo partly drawn) [Example 301, 3-(1-((2-(3,5-dichlorophenyl)-6-((2-(4-((R)-2-hydroxypropyl)piperazin-1-yl)pyrimidin-5-yl)oxy)pyridin-4-yl)methyl)piperidin-4-yl)-2-methylpropanoic acid]
7.94 | 9.6 | – | CC(=O)NCC1CCN(Cc2cc(Oc3cnc(N4CCN(C[C@@H](C)O)CC4)nc3)nc(-c3cc(Cl)cc(Cl)c3)c2)CC1 [Example 302]
2.51 | 8.8 | – | CC(=O)NCC1CCN(Cc2cc(Oc3cnc(N4CCN(CC(O)CF)CC4)nc3)nc(-c3cc(Cl)cc(Cl)c3)c2)CC1 (stereo not shown) [Example 304, N-((1-((2-(3,5-dichlorophenyl)-6-((2-(4-(3-fluoro-2-hydroxypropyl)piperazin-1-yl)pyrimidin-5-yl)oxy)pyridin-4-yl)methyl)piperidin-4-yl)methyl)acetamide]
10 | 8.7 | – | CNC(=O)OCC1CCN(Cc2cc(Oc3ccc(N4CCN(C[C@@H](C)O)CC4)nc3)nc(-c3cc(Cl)cc(Cl)c3)c2)CC1 [Example 305, (R)-(1-((2-(3,5-dichlorophenyl)-6-((6-(4-(2-hydroxypropyl)piperazin-1-yl)pyridin-3-yl)oxy)pyridin-4-yl)methyl)piperidin-4-yl)methyl methylcarbamate]
2 | 9.4 | – | CNC(=O)OCC1CCN(Cc2cc(Oc3cnc(N4CCN(CCO)CC4)nc3)nc(-c3cc(Cl)cc(Cl)c3)c2)CC1 [Example 307, (1-((2-(3,5-dichlorophenyl)-6-((2-(4-(2-hydroxyethyl)piperazin-1-yl)pyrimidin-5-yl)oxy)pyridin-4-yl)methyl)piperidin-4-yl)methyl methylcarbamate]
100 | 10.2 | – | CC(=O)NCC1CCN(Cc2cc(Oc3cnc(N4CCN(CC(O)C(=O)O)CC4)nc3)nc(-c3cc(Cl)cc(Cl)c3)c2)CC1 (stereo not shown) [Example 316, 3-(4-(5-((4-((4-(acetamidomethyl)piperidin-1-yl)methyl)-6-(3,5-dichlorophenyl)pyridin-2-yl)oxy)pyrimidin-2-yl)piperazin-1-yl)-2-hydroxypropanoic acid]
15.8 | 9.2 | – | C[C@@H](O)CN1CCN(c2ncc(Oc3cc(CN4CCC(OCC(=O)O)CC4)cc(-c4cc(Cl)cc(Cl)c4)n3)cn2)CC1 [Example 317, (R)-2-((1-((2-(3,5-dichlorophenyl)-6-((2-(4-(2-hydroxypropyl)piperazin-1-yl)pyrimidin-5-yl)oxy)pyridin-4-yl)methyl)piperidin-4-yl)oxy)acetic acid]

Second part, the molecule before the results:

SMILES | EC50 [1] [nM] | furin enzyme pIC50 [2] | IC50 ([2]; read-out: furin enzyme pIC50 (converted)) [nM]
CNC(=O)NCC1CCN(Cc2cc(Oc3cnc(N4CCN(CCC(C)O)CC4)nc3)nc(-c3cc(Cl)cc(Cl)c3)c2)CC1 (stereo not shown) [Example 295, 1-((1-((2-(3,5-dichlorophenyl)-6-((2-(4-(3-hydroxybutyl)piperazin-1-yl)pyrimidin-5-yl)oxy)pyridin-4-yl)methyl)piperidin-4-yl)methyl)-3-methylurea] | 0.794 | 9.5 | –
CC(=O)NCC1CCN(Cc2cc(Oc3cnc(N4CC5CCC(C4)N5CCC(=O)O)nc3)nc(-c3cc(Cl)cc(Cl)c3)c2)CC1 [Example 296, 3-(3-(5-((4-((4-(acetamidomethyl)piperidin-1-yl)methyl)-6-(3,5-dichlorophenyl)pyridin-2-yl)oxy)pyrimidin-2-yl)-3,8-diazabicyclo[3.2.1]octan-8-yl)propanoic acid] | 10 | 10.6 | –
COC(=O)CCN1CCN(c2ncc(Oc3cc(CN4CCC(CNC(C)=O)CC4)cc(-c4cc(Cl)cc(Cl)c4)n3)cn2)CC1 [Example 297, methyl 3-(4-(5-((4-((4-(acetamidomethyl)piperidin-1-yl)methyl)-6-(3,5-dichlorophenyl)pyridin-2-yl)oxy)pyrimidin-2-yl)piperazin-1-yl)propanoate] | 5.01 | 9.4 | –
O=C(O)CC1CCN(Cc2cc(Oc3ccc(N4CCN(CCO)CC4)nc3)nc(-c3cc(Cl)cc(Cl)c3)c2)CC1 [Example 300, 2-(1-((2-(3,5-dichlorophenyl)-6-((6-(4-(2-hydroxyethyl)piperazin-1-yl)pyridin-3-yl)oxy)pyridin-4-yl)methyl)piperidin-4-yl)acetic acid] | 20 | 9.1 | –
CC(=O)NCC1CCN(Cc2cc(Oc3cnc(N4CCN(CC(C)(C)O)CC4)nc3)nc(-c3cc(Cl)cc(Cl)c3)c2)CC1 [Example 303, N-((1-((2-(3,5-dichlorophenyl)-6-((2-(4-(2-hydroxy-2-methylpropyl)piperazin-1-yl)pyrimidin-5-yl)oxy)pyridin-4-yl)methyl)piperidin-4-yl)methyl)acetamide] | 2.51 | 9.2 | –
CNC(=O)OCC1CCN(Cc2cc(Oc3cnc(N4CCN(C[C@@H](C)O)CC4)nc3)nc(-c3cc(Cl)cc(Cl)c3)c2)CC1 [Example 308, (R)-(1-((2-(3,5-dichlorophenyl)-6-((2-(4-(2-hydroxypropyl)piperazin-1-yl)pyrimidin-5-yl)oxy)pyridin-4-yl)methyl)piperidin-4-yl)methyl methylcarbamate] | 12.6 | 9.3 | –
CNC(=O)NCC1CCN(Cc2cc(Oc3ccc(N4CCN(C[C@@H](C)O)CC4)nc3)nc(-c3cc(Cl)cc(Cl)c3)c2)CC1 [Example 309, (R)-1-((1-((2-(3,5-dichlorophenyl)-6-((6-(4-(2-hydroxypropyl)piperazin-1-yl)pyridin-3-yl)oxy)pyridin-4-yl)methyl)piperidin-4-yl)methyl)-3-methylurea] | 2.51 | 9.8 | –
CNC(=O)NCC1CCN(Cc2cc(Oc3cnc(N4CCN(C[C@@H](C)O)CC4)nc3)nc(-c3cc(Cl)cc(Cl)c3)c2)CC1 [Example 310, (R)-1-((1-((2-(3,5-dichlorophenyl)-6-((2-(4-(2-hydroxypropyl)piperazin-1-yl)pyrimidin-5-yl)oxy)pyridin-4-yl)methyl)piperidin-4-yl)methyl)-3-methylurea] | 3.98 | 9.6 | –
COC(=O)NCC1CCN(Cc2cc(Oc3cnc(N4CCN(CCO)CC4)nc3)nc(-c3cc(Cl)cc(Cl)c3)c2)CC1 [Example 311, methyl ((1-((2-(3,5-dichlorophenyl)-6-((2-(4-(2-hydroxyethyl)piperazin-1-yl)pyrimidin-5-yl)oxy)pyridin-4-yl)methyl)piperidin-4-yl)methyl)carbamate] | 15.8 | 8.9 | –
COC(=O)NCC1CCN(Cc2cc(Oc3cnc(N4CCN(C[C@@H](C)O)CC4)nc3)nc(-c3cc(Cl)cc(Cl)c3)c2)CC1 [Example 312, (R)-methyl ((1-((2-(3,5-dichlorophenyl)-6-((2-(4-(2-hydroxypropyl)piperazin-1-yl)pyrimidin-5-yl)oxy)pyridin-4-yl)methyl)piperidin-4-yl)methyl)carbamate] | 15.8 | 9.7 | –
CNC(=O)NCC1CCN(Cc2cc(Oc3cnc(N4CCN(CCO)CC4)nc3)cc(-c3cc(Cl)cc(Cl)c3)c2)CC1 [Example 313, 1-((1-((3′,5′-dichloro-5-((2-(4-(2-hydroxyethyl)piperazin-1-yl)pyrimidin-5-yl)oxy)-[1,1′-biphenyl]-3-yl)methyl)piperidin-4-yl)methyl)-3-methylurea] | 15.8 | – | < 0.158
O=C(O)CCC1CCN(Cc2cc(Oc3ccc(N4CCN(CCO)CC4)nc3)nc(-c3cc(Cl)cc(Cl)c3)c2)CC1 [Example 314, 3-(1-((2-(3,5-dichlorophenyl)-6-((6-(4-(2-hydroxyethyl)piperazin-1-yl)pyridin-3-yl)oxy)pyridin-4-yl)methyl)piperidin-4-yl)propanoic acid] | 31.6 | 8.9 | –
CC(=O)NCC1CCN(Cc2cc(Oc3cnc(N4CCN(CCO)CC4)nc3)nc(-c3cc(F)cc(Cl)c3)c2)CC1 [Example 315, N-((1-((2-(3-chloro-5-fluorophenyl)-6-((2-(4-(2-hydroxyethyl)piperazin-1-yl)pyrimidin-5-yl)oxy)pyridin-4-yl)methyl)piperidin-4-yl)methyl)acetamide] | 15.8 | 9.2 | –
CN1CCN(c2ncc(Oc3cc(CN4CCC(CB(O)O)CC4)cc(-c4cc(Cl)cc(Cl)c4)n3)cn2)CC1 [Example 318, ((1-((2-(3,5-Dichlorophenyl)-6-((2-(4-methylpiperazin-1-yl)pyrimidin-5-yl)oxy)pyridin-4-yl)methyl)piperidin-4-yl)methyl)boronic acid, 4 hydrochloride] | 10 | 8.9 | –
